Assay results published in US20050171139A1, “Treating psychotic symptoms” (priority 2003, published 2005).

Experiment: PPI after repeated low-dose ropinirole
Type: in vivo
Conditions: same low doses as quinpirole

Compound: CCCN(CCC)CCc1cccc2c1CC(=O)N2 [ropinirole]
- effect on PPI over time: acts like quinpirole to attenuate PPI symptoms over time
